Source: EP0007205A1, “Optically active phenethanolamines, their formulations, use and preparation” (ELI LILLY AND COMPANY, priority 1978, dated 1980)
Where two headings read alike, the source gives them in different places.

Assays:
[1] = tested on: dogs; experiment: Inotropic potency in anesthetized dogs and conscious dogs with implanted cardiovascular transducers; format: in vivo; settings: for ED50: read-out: Cardiac Contractile Potency mcg/kg ED50; for Blood Pressure Change mm/hg at ED50 / Heart rate Change beats/min. at ED50: at the contractile ED50
Description: The heart rate, arterial pressure, cardiac output, and the derivative of left ventricular pressure (which is the index of cardiac contractility), were measured.

[2] = tested on: dogs; experiment: Physical conditioning of dogs (treadmill exercise, chronic oral dosing); format: in vivo
Source text: In a typical experiment, a group of ten dogs were implanted with miniature pressure transducers in their left ventricle so that measurements of heart rate, systolic pressure and the derivative of left ventricular pressure (the index of cardiac contractility) could be made. The dogs were trained to walk on a treadmill. Five of the dogs were randomly selected to receive a compound of this invention, for instance R,R-N-[2-(4-hydroxyphenyl)-2-hydroxyethyl]-1-methyl-3-(4-hydroxyphenyl)propylaminium chloride. The test animals received saline filled capsules during the first week of the test. During the second and third weeks, the dogs received the test compound orally at a dose of 10 mcg./kg. twice each day. The dosage was increased to 40 mcg./kg. twice each day for the fourth week, and increased to 60 mcg./kg. twice each day through weeks five to eleven. The other five dogs received saline filled capsules throughout the study. Once each week, the animals' response to exercise on . the treadmill was evaluated. Resting data were obtained by permitting the dogs to lie on the treadmill before turning it on. The treadmill then was run at a speed of 3.5 kilometers/hr., with the dogs walking at this speed with no elevation for 5 min., and then for 5 min. at a 20% incline. During the eleventh week of such test, the dogs were made to walk on a 40% incline, thus providing sufficient stress to increase plasma lactic acid and catecholamines. Blood samples prior to each exercise and within two minutes of completing the exercise were taken from the jugular vein.
After several weeks, the dogs were anesthetized and measurements of ventricular function and skeletal muscle blood flow and enzymes were made.

[3] = Canis lupus familiaris, dogs, dose giving a 50% increase in contractile force (derivative of left ventricular pressure)

Compound | Blood Pressure Change mm/hg at ED50 ([1]; dogs) | Heart rate Change beats/min. at ED50 ([1]; dogs) | ED50 [1, 3] | also measured
C[C@H](CCc1ccc(O)cc1)NC[C@H](O)c1ccc(O)cc1 [R,R-N-[2-(4-hydroxyphenyl)-2-hydroxyethyl]-1-methyl-3-(4-hydroxyphenyl)propylamine] | -5 mm/hg | 15 beats/min. | – | ED50 ([1]; Canis lupus familiaris): 0.32 µg/kg
C[C@H](CCc1ccc(O)cc1)NC[C@H](O)c1ccc(O)cc1.Cl [R,R-N-[2-(4-Hydroxyphenyl)-2-hydroxyethyl]-1-methyl-3-(4-hydroxyphenyl)propylaminium chloride] | – | – | – | Skeletal Muscle Blood Flow (ml./min./100 g.) ([2]; conditioned dogs, anesthetized after several weeks, p<0.01): 2.5 ml./min./100 g.; Heart Rate (beats/min.) at rest ([2]; conditioned dogs, at rest, p<0.01): 55 beats/min.; Heart Rate (beats/min.) at 20° walk ([2]; conditioned dogs, treadmill walk at 20°, p<0.01): 150 beats/min.; Blood Lactic Acid (mg.%) at rest ([2]; dogs, oral 10 then 40 then 60 mcg./kg. twice each day over eleven weeks, at rest, p<0.01 printed for lactic acid): 5.2 mg.%; Plasma Norepinephrine (picograms/ml.) at rest ([2]; dogs, oral 10 then 40 then 60 mcg./kg. twice each day over eleven weeks, at rest, p<0.05 printed for norepinephrine): 235 picograms/ml.; Blood Lactic Acid (mg.%) during exercise ([2]; dogs, oral 10 then 40 then 60 mcg./kg. twice each day over eleven weeks, during treadmill exercise, p<0.01 printed for lactic acid): 6.3 mg.%; Plasma Norepinephrine (picograms/ml.) during exercise ([2]; dogs, oral 10 then 40 then 60 mcg./kg. twice each day over eleven weeks, during treadmill exercise, p<0.05 printed for norepinephrine): 200 picograms/ml.; Succinic Dehydrogenase Activity (µM/mgP/min.) ([2]; skeletal muscle of conditioned dogs, p<0.01): 3.3 µM/mgP/min.
C[C@@H](CCc1ccc(O)cc1)NC[C@H](O)c1ccccc1 [R,S-N-[2-phenyl-2-hydroxyethyl)-1-methyl-3-(4-hydroxyphenyl)propylamine, reference compound] | -20 mm/hg | 18 beats/min. | 350 µg/kg | –
C[C@@H](CCc1ccc(O)cc1)NC[C@H](O)c1ccc(O)cc1 [R,S-N-[2-(4-hydroxyphenyl)-2-hydroxyethyl]-1-methyl-3-(4-hydroxyphenyl)propylamine, reference compound] | -2 mm/hg | 15 beats/min. | – | ED50 ([1]; Canis lupus familiaris): 11 µg/kg
C[C@@H](CCc1ccc(C(N)=O)cc1)NC[C@H](O)c1ccccc1 [R,S-N-(2-phenyl-2-hydroxyethyl)-1-methyl-3-(4-aminocarbonylphenyl)propylamine, reference compound] | – | – | – | ED (max) ([1]; Canis lupus familiaris, dogs, EDmax: a 50% increase in contractile force could not be achieved, dose giving the maximal increase, read-out: Cardiac Contractile Potency mcg/kg (EDmax)): 1980 µg/kg; Blood Pressure Change mm/hg (EDmax) ([1]; dogs, at EDmax dose): -30 (EDmax) mm/hg; Heart rate Change beats/min. (EDmax) ([1]; dogs, at EDmax dose): 24 (EDmax) beats/min.
C[C@H](CCc1ccc(C(N)=O)cc1)NC[C@H](O)c1ccccc1 [R,R-N-(2-Phenyl-2-hydroxyethyl)-l-methyl-3-(4-aminocarbonylphenyl)propylamine] | +3 mm/hg | 15 beats/min. | 7 µg/kg | –
C[C@H](CCc1ccc(O)cc1)NC[C@H](O)c1ccccc1 [R,R-N-(2-phenyl-2-hydroxyethyl)-1-methyl-3-(4-hydroxyphenyl)propylamine] | -13 mm/hg | 15 beats/min. | 6 µg/kg | –
